According to patent US11945813B2, “5-substituted 4-amino-1H-benzo[c][1,2,6]thiadiazine 2,2-dioxides and formulations and uses thereof” (Firmenich Incorporated, priority 2018, dated 2024):

Target: T1, T1R2/T1R3 taste receptor (Homo sapiens, UniProt Q8TE23)
T1 sequence (Q8TE23 20-839): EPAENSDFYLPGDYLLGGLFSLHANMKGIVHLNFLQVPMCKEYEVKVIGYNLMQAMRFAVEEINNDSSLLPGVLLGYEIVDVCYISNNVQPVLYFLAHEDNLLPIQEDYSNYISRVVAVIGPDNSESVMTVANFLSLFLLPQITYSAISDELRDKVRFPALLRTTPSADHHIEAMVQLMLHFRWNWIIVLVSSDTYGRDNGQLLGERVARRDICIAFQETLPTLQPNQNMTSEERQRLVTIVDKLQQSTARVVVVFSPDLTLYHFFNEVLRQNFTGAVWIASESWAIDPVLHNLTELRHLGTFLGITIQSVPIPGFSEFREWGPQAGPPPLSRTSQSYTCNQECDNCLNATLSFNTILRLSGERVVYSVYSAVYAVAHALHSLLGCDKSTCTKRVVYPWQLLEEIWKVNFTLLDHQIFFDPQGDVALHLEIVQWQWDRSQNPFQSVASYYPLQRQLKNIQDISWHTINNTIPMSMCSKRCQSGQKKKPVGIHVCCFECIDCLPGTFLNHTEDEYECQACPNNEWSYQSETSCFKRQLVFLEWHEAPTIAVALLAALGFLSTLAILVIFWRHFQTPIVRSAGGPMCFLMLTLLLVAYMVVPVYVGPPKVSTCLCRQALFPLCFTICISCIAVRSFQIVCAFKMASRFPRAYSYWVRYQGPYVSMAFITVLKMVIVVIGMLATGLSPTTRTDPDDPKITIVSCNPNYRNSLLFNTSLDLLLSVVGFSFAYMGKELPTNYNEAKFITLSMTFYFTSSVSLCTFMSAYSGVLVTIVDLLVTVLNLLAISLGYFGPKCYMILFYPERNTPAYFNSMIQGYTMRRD
T1 sequence (Q7RTX0 21-852 partner): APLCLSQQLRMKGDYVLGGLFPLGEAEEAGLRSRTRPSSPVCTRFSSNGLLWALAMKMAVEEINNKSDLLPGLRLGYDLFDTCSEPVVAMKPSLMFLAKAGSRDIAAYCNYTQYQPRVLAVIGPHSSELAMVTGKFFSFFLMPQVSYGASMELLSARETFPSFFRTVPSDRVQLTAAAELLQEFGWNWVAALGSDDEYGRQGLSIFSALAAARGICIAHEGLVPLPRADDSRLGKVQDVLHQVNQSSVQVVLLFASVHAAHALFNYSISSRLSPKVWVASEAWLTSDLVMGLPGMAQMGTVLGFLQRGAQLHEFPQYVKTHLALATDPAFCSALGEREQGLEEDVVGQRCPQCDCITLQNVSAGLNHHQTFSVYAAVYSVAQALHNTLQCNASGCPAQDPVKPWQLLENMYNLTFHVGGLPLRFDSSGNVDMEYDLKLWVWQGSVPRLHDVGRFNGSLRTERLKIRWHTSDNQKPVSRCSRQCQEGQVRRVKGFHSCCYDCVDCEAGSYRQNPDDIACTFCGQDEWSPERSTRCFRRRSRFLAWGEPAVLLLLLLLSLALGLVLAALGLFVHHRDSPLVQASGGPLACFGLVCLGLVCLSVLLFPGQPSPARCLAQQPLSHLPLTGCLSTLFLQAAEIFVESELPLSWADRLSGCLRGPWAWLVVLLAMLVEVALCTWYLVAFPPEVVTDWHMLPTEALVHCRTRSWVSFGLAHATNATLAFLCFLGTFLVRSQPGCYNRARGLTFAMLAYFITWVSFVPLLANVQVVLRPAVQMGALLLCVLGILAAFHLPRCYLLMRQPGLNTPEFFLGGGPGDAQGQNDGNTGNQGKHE
Experiment: Receptor-based assay: sweetener EC50 alone and with test compound (enhancement ratio)
Format: cell-based
Details: for Sucralose Enhancement EC50 Ratio: sweetener sucralose; for Sucrose Enhancement EC50 Ratio: sweetener sucrose; for Fructose Enhancement EC50 Ratio: sweetener fructose
In short: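 Sucrose, sucralose or fructose EC50 measured on human T1R2/T1R3, alone and with 3, 10 or 50 μM test compound. Enhancement is the EC50 ratio without/with compound, binned A >20, B 10-20, C >1 to <10.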

SMILES | Sucralose Enhancement EC50 Ratio (10 μM test compound) | Sucrose Enhancement EC50 Ratio (3 μM test compound) | Sucrose Enhancement EC50 Ratio (10 μM test compound) | Sucrose Enhancement EC50 Ratio (50 μM test compound) | Fructose Enhancement EC50 Ratio (50 μM test compound) | Sucralose Enhancement EC50 Ratio (50 μM test compound)
NC1=NS(=O)(=O)Nc2cccc(OC[C@H]3CCCN(c4ccc(C(=O)NCCO)cn4)C3)c21 [Compound 503] | A (An “A” value indicates an enhancement ratio of greater than 20) | C (A “C” value indicates an enhancement ratio greater than 1 and less than 10) | C (A “C” value indicates an enhancement ratio greater than 1 and less than 10) | C (A “C” value indicates an enhancement ratio greater than 1 and less than 10) | – | –
COCCNC(=O)c1ccc(N2CCC[C@H](COc3cccc4c3C(N)=NS(=O)(=O)N4)C2)nc1 [Compound 504] | A (An “A” value indicates an enhancement ratio of greater than 20) | C (A “C” value indicates an enhancement ratio greater than 1 and less than 10) | C (A “C” value indicates an enhancement ratio greater than 1 and less than 10) | C (A “C” value indicates an enhancement ratio greater than 1 and less than 10) | C (A “C” value indicates an enhancement ratio greater than 1 and less than 10) | A (An “A” value indicates an enhancement ratio of greater than 20)
CN(C)CCNC(=O)c1ccc(N2CCC[C@H](COc3cccc4c3C(N)=NS(=O)(=O)N4)C2)nc1 [Compound 505] | C (A “C” value indicates an enhancement ratio greater than 1 and less than 10) | C (A “C” value indicates an enhancement ratio greater than 1 and less than 10) | C (A “C” value indicates an enhancement ratio greater than 1 and less than 10) | C (A “C” value indicates an enhancement ratio greater than 1 and less than 10) | C (A “C” value indicates an enhancement ratio greater than 1 and less than 10) | A (An “A” value indicates an enhancement ratio of greater than 20)
CC(C)NC(=O)c1ccc(N2CCC[C@H](COc3cccc4c3C(N)=NS(=O)(=O)N4)C2)nc1 [Compound 506] | A (An “A” value indicates an enhancement ratio of greater than 20) | C (A “C” value indicates an enhancement ratio greater than 1 and less than 10) | C (A “C” value indicates an enhancement ratio greater than 1 and less than 10) | C (A “C” value indicates an enhancement ratio greater than 1 and less than 10) | – | A (An “A” value indicates an enhancement ratio of greater than 20)
NC1=NS(=O)(=O)Nc2cccc(OC[C@H]3CCCN(c4ccc(C(=O)NC5CC5)cn4)C3)c21 [Compound 507] | A (An “A” value indicates an enhancement ratio of greater than 20) | C (A “C” value indicates an enhancement ratio greater than 1 and less than 10) | C (A “C” value indicates an enhancement ratio greater than 1 and less than 10) | C (A “C” value indicates an enhancement ratio greater than 1 and less than 10) | C (A “C” value indicates an enhancement ratio greater than 1 and less than 10) | A (An “A” value indicates an enhancement ratio of greater than 20)
NC1=NS(=O)(=O)Nc2cccc(OC[C@H]3CCCN(c4ccc(C(=O)NC5CCCC5)cn4)C3)c21 [Compound 508] | B (A “B” value indicates an enhancement ratio from 10 to 20) | C (A “C” value indicates an enhancement ratio greater than 1 and less than 10) | C (A “C” value indicates an enhancement ratio greater than 1 and less than 10) | C (A “C” value indicates an enhancement ratio greater than 1 and less than 10) | C (A “C” value indicates an enhancement ratio greater than 1 and less than 10) | A (An “A” value indicates an enhancement ratio of greater than 20)
NC1=NS(=O)(=O)Nc2cccc(OC[C@H]3CCCN(c4ccc(C(=O)NC5CCCCC5)cn4)C3)c21 [Compound 509] | B (A “B” value indicates an enhancement ratio from 10 to 20) | C (A “C” value indicates an enhancement ratio greater than 1 and less than 10) | C (A “C” value indicates an enhancement ratio greater than 1 and less than 10) | C (A “C” value indicates an enhancement ratio greater than 1 and less than 10) | C (A “C” value indicates an enhancement ratio greater than 1 and less than 10) | A (An “A” value indicates an enhancement ratio of greater than 20)
CN(C)C(=O)c1ccc(N2CCC[C@H](COc3cccc4c3C(N)=NS(=O)(=O)N4)C2)nc1 [Compound 510] | B (A “B” value indicates an enhancement ratio from 10 to 20) | C (A “C” value indicates an enhancement ratio greater than 1 and less than 10) | C (A “C” value indicates an enhancement ratio greater than 1 and less than 10) | A (An “A” value indicates an enhancement ratio of greater than 20) | C (A “C” value indicates an enhancement ratio greater than 1 and less than 10) | A (An “A” value indicates an enhancement ratio of greater than 20)
CCN(CC)C(=O)c1ccc(N2CCC[C@H](COc3cccc4c3C(N)=NS(=O)(=O)N4)C2)nc1 [Compound 511] | A (An “A” value indicates an enhancement ratio of greater than 20) | C (A “C” value indicates an enhancement ratio greater than 1 and less than 10) | C (A “C” value indicates an enhancement ratio greater than 1 and less than 10) | B (A “B” value indicates an enhancement ratio from 10 to 20) | C (A “C” value indicates an enhancement ratio greater than 1 and less than 10) | A (An “A” value indicates an enhancement ratio of greater than 20)
NC1=NS(=O)(=O)Nc2cccc(OC[C@H]3CCCN(c4ccc(C(=O)N5CCCC5)cn4)C3)c21 [Compound 512] | A (An “A” value indicates an enhancement ratio of greater than 20) | C (A “C” value indicates an enhancement ratio greater than 1 and less than 10) | C (A “C” value indicates an enhancement ratio greater than 1 and less than 10) | C (A “C” value indicates an enhancement ratio greater than 1 and less than 10) | C (A “C” value indicates an enhancement ratio greater than 1 and less than 10) | A (An “A” value indicates an enhancement ratio of greater than 20)
